ChEMBL document CHEMBL1158661, “Celenamide E, a Tripeptide Alkaloid from the Patagonian Sponge Cliona chilensis” (J Nat Prod, 1998)
Activity calls are given as the source filed them.

Columns and labels:
Assay type in all cases: functional, organism-based
Micrococcus luteus = test: Antibiotic activity against Micrococcus luteus at 50 ug/disk
Bacillus subtilis = test: Antibiotic activity against Bacillus subtilis at 50 ug/disk
Staphylococcus aureus = test: Antibiotic activity against Staphylococcus aureus at 50 ug/disk
Enterococcus faecalis = test: Antibiotic activity against Enterococcus faecalis at 50 ug/disk

Measured: Activity

N/C(=C\c1cc(O)c(O)c(O)c1)C(=O)N[C@@H](Cc1c[nH]c2cc(Br)ccc12)C(=O)N/C=C/c1ccc(O)c(O)c1
active: all assays above
